Data on 28 compounds can be found in ChEMBL document CHEMBL1909046, “DrugMatrix in vitro pharmacology data”.

The target of experiment [1] is Beta-2 adrenergic receptor (Homo sapiens, UniProt P07550). As to the kind of experiment: DRUGMATRIX: Adrenergic beta2 radioligand binding (ligand: [3H] CGP-12177). Type of experiment: cell membranes, CHO, Membrane. As to conditions: Not Active = under 50% inhibition at 10 µM.
For experiment [2], the target named is T1, D(4) dopamine receptor (Homo sapiens, UniProt P21917).
T1 sequence (P21917 whole entry): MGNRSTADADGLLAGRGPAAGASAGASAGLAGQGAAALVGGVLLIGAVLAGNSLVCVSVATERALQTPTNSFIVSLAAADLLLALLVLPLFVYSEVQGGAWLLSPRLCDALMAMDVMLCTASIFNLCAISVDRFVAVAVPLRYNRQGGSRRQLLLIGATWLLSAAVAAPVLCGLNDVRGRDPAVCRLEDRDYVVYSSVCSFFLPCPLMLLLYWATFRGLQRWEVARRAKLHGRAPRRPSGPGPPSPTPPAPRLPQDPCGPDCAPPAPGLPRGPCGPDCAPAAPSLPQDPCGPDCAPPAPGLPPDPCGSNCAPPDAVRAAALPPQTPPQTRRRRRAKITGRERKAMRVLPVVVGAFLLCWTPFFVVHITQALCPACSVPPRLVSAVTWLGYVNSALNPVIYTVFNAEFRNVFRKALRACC
The experiment in a line: DRUGMATRIX: Dopamine D4.2 radioligand binding (ligand: [3H] Spiperone). It is filed as cell membranes, CHO-K1, Membrane. As to conditions: Not Active = under 50% inhibition at 10 µM.

Experiment [3] concerns the target cGMP-specific 3',5'-cyclic phosphodiesterase (Homo sapiens, UniProt O76074). The experiment in a line: DRUGMATRIX: Phosphodiesterase PDE5 enzyme inhibition (substrate: [3H]cGMP + cGMP). Type of experiment: tissue-based, Platelet. As to conditions: Not Active = under 50% inhibition at 10 µM.
Experiment [4] has as its target Acetylcholinesterase (Homo sapiens, UniProt P22303). The experiment in a line: DRUGMATRIX: Acetylcholinesterase enzyme inhibition (substrate: acetylthiocholine). It is filed as cell-based, HEK293. As to conditions: Not Active = under 50% inhibition at 10 µM.
Experiment [5] concerns the target Tyrosine-protein kinase Fyn (Homo sapiens, UniProt P06241). The experiment in a line: biochemical. It is filed as cell-based, Insect cells.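 Further: enzymatic inhibition of Fyn kinase activity measured with Poly(Glu:Tyr) as the phosphorylation substrate; in other assays of this panel Not Active means under 50% inhibition at 10 µM.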

Sequence of Tyrosine-protein kinase Fyn (P06241 whole entry): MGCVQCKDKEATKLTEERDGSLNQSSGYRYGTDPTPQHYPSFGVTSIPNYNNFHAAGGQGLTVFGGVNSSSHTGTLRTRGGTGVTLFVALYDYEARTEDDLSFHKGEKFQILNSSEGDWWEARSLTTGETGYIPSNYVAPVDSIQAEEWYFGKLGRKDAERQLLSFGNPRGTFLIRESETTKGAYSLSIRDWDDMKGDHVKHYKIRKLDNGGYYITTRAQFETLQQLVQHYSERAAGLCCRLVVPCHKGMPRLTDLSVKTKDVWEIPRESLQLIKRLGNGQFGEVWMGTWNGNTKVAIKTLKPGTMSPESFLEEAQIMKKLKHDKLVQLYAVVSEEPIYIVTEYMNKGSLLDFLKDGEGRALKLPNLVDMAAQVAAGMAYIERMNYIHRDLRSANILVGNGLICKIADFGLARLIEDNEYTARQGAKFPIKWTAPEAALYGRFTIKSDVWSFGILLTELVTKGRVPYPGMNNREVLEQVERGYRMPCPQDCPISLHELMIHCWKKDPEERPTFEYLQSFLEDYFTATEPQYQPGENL
Sequence of Acetylcholinesterase (P22303 whole entry): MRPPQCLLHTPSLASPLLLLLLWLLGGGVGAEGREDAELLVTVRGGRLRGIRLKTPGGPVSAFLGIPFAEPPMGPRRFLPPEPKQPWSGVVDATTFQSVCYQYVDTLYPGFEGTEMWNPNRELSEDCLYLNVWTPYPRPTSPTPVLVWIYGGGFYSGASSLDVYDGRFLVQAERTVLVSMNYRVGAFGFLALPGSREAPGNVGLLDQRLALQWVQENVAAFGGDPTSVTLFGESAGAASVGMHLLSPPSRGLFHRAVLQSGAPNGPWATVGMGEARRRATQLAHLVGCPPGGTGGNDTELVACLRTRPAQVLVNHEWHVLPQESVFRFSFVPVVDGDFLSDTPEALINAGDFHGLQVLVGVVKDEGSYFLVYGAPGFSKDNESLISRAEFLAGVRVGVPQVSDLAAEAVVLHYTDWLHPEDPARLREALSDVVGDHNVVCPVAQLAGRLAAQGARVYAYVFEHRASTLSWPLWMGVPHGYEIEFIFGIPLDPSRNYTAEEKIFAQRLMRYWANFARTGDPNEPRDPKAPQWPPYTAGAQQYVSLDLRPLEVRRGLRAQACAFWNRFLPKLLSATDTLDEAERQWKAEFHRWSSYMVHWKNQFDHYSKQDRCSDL

In general, IC50 refers to the concentration needed to halve the response being measured. `CCCCC(=O)N(Cc1ccc(-c2ccccc2-c2nnn[nH]2)cc1)[C@H](C(=O)O)C(C)C`: the half-maximal inhibitory concentration (IC50) entry in experiment [1] (cho), in experiment [2] (cho-k1), in experiment [3] (platelet), in experiment [4] (hek293) and in experiment [5] (insect cells) was “Not Active” each time.
As for `O=C(O)COc1ccc(C(=O)c2cccs2)c(Cl)c1Cl`, the IC50 result in experiment [1] (cho), in experiment [2] (cho-k1), in experiment [3] (platelet), in experiment [4] (hek293) and in experiment [5] (insect cells) was “Not Active” each time.
Turning to `CN1[C@@H]2CC[C@H]1C[C@@H](OC(c1ccccc1)c1ccccc1)C2` [BENZTROPINE], the IC50 entry in experiment [1] (cho), in experiment [2] (cho-k1), in experiment [3] (platelet), in experiment [4] (hek293) and in experiment [5] (insect cells) was “Not Active” throughout.
Regarding `C[C@@](Cc1ccc(O)c(O)c1)(NN)C(=O)O.O` [CARBIDOPA], the 50% inhibitory concentration (IC50) result was “Not Active” in experiment [1] (cho); “Not Active” in experiment [2] (cho-k1); “Not Active” in experiment [3] (platelet); “Not Active” in experiment [4] (hek293); 3.73 µM in experiment [5] (read-out: IC50).
With `CN1CCN(C2=Nc3cc(Cl)ccc3Nc3ccccc32)CC1` [CLOZAPINE], the IC50 result in experiment [1] (cho), in experiment [3] (platelet), in experiment [4] (hek293) and in experiment [5] (insect cells) was “Not Active” throughout.
With `CC(C)NC[C@@H](O)COc1cccc2ccccc12` [DEXPROPRANOLOL], the IC50 entry in experiment [2] (cho-k1), in experiment [3] (platelet), in experiment [4] (hek293) and in experiment [5] (insect cells) was “Not Active” throughout.
Turning to `CC(C)NC[C@H](O)COc1cccc2ccccc12` [LEVOPROPRANOLOL], the half-maximal inhibitory concentration (IC50) result in experiment [2] (cho-k1), in experiment [3] (platelet), in experiment [4] (hek293) and in experiment [5] (insect cells) was “Not Active” in each case.
Turning to `O=C(O)CCCCC1CCSS1` (stereo not drawn) [LIPOIC ACID, ALPHA], the IC50 result in experiment [1] (cho), in experiment [2] (cho-k1), in experiment [3] (platelet), in experiment [4] (hek293) and in experiment [5] (insect cells) was “Not Active” throughout.
As usually defined, the Ki is the dissociation constant of the complex between target and ligand, obtained from inhibition or displacement. On to `CN(C)C(=O)C(CCN1CCC(O)(c2ccc(Cl)cc2)CC1)(c1ccccc1)c1ccccc1` [LOPERAMIDE], for which the IC50 in experiment [1] (read-out: IC50) was 3.01 µM; in experiment [2] (cho-k1), “Not Active”; in experiment [3] (platelet), “Not Active”; in experiment [4] (hek293), “Not Active”; in experiment [5] (insect cells), “Not Active”. Also, the inhibitory constant (Ki) in experiment [1] (read-out: Ki) turned out to be 2.07 µM.
In the case of `Clc1ccc(COC(Cn2ccnc2)c2ccc(Cl)cc2Cl)c(Cl)c1` (configuration not stated) [MICONAZOLE], the half-inhibitory concentration (IC50) entry in experiment [1] (cho) was “Not Active”; in experiment [2] (read-out: IC50) it was 15.3 µM; in experiment [3] (platelet), “Not Active”; in experiment [4] (read-out: IC50), 18.7 µM; in experiment [5] (read-out: IC50), 4.16 µM. For the same compound, the inhibition constant (Ki) in experiment [2] (read-out: Ki) came out at 5.35 µM.
On to `Oc1ccc2c3c1O[C@H]1[C@@H](O)CC[C@@]4(O)[C@@H](C2)N(CC2CCC2)CC[C@]314` [NALBUPHINE], for which the concentration for half-maximal inhibition (IC50) result in experiment [1] (cho), in experiment [2] (cho-k1), in experiment [3] (platelet), in experiment [4] (hek293) and in experiment [5] (insect cells) was “Not Active” each time.
Take `C[C@]12C=CC(=O)C=C1CC[C@@H]1[C@@H]2C(=O)C[C@@]2(C)[C@H]1CC[C@]2(O)C(=O)CO` [PREDNISONE]: the IC50 entry in experiment [1] (cho), in experiment [2] (cho-k1), in experiment [3] (platelet), in experiment [4] (hek293) and in experiment [5] (insect cells) was “Not Active” in each case.
Turning to `OCCOCCN1CCN(C2=Nc3ccccc3Sc3ccccc32)CC1` [QUETIAPINE], the IC50 entry in experiment [1] (cho), in experiment [2] (cho-k1), in experiment [3] (platelet), in experiment [4] (hek293) and in experiment [5] (insect cells) was “Not Active” throughout.
For `COC(=O)[C@H]1[C@H]2C[C@@H]3c4[nH]c5cc(OC)ccc5c4CCN3C[C@H]2C[C@@H](OC(=O)c2cc(OC)c(OC)c(OC)c2)[C@@H]1OC` [RESERPINE], the concentration for half-maximal inhibition (IC50) entry in experiment [1] (cho), in experiment [2] (cho-k1), in experiment [3] (platelet), in experiment [4] (hek293) and in experiment [5] (insect cells) was “Not Active” throughout.
Regarding `O=C(O)c1ccccc1O` [SALICYLIC ACID], the IC50 result in experiment [1] (cho), in experiment [2] (cho-k1), in experiment [3] (platelet), in experiment [4] (hek293) and in experiment [5] (insect cells) was “Not Active” in each case.
Regarding `C[S+]([O-])c1ccc(-c2nc(-c3ccncc3)c(-c3ccc(F)cc3)[nH]2)cc1` (configuration not stated) [SB-203580], the IC50 result in experiment [1] (cho) was “Not Active”; in experiment [2] (cho-k1), “Not Active”; in experiment [3] (read-out: IC50), 11.5 µM; in experiment [4] (hek293), “Not Active”.
Turning to `CC1CCC(NC(=O)N(CCCl)N=O)CC1` (configuration not stated) [SEMUSTINE], the IC50 entry in experiment [1] (cho), in experiment [2] (cho-k1), in experiment [3] (platelet), in experiment [4] (hek293) and in experiment [5] (insect cells) was “Not Active” throughout.
With `O=C1C[C@@H]2OCC=C3CN4CC[C@]56c7ccccc7N1[C@H]5[C@H]2[C@H]3C[C@H]46` [STRYCHNINE], the IC50 entry in experiment [1] (cho), in experiment [2] (cho-k1), in experiment [3] (platelet), in experiment [4] (hek293) and in experiment [5] (insect cells) was “Not Active” each time.
Take `C[N+](C)(C)CCOC(=O)CCC(=O)OCC[N+](C)(C)C.[Cl-].[Cl-]` [SUCCINYLCHOLINE CHLORIDE]: the IC50 result in experiment [1] (cho), in experiment [2] (cho-k1), in experiment [3] (platelet), in experiment [4] (hek293) and in experiment [5] (insect cells) was “Not Active” throughout.
Turning to `Nc1ccc(S(=O)(=O)NC(=O)c2ccccc2)cc1` [SULFABENZAMIDE], the IC50 result in experiment [1] (cho), in experiment [2] (cho-k1), in experiment [3] (platelet), in experiment [4] (hek293) and in experiment [5] (insect cells) was “Not Active” in each case.
Regarding `CCCCCCCCNC(C)C(O)c1ccc(SC(C)C)cc1` (configuration not stated) [SULOCTIDIL], the IC50 result in experiment [1] (cho) was “Not Active”; in experiment [2] (cho-k1), “Not Active”; in experiment [3] (platelet), “Not Active”; in experiment [4] (hek293), “Not Active”; in experiment [5] (read-out: IC50), 0.722 µM.
`O=c1[nH]c(=O)n(C2CCCO2)cc1F` (configuration not stated) [TEGAFUR]: the half-maximal inhibitory concentration (IC50) result in experiment [1] (cho), in experiment [2] (cho-k1), in experiment [3] (platelet), in experiment [4] (hek293) and in experiment [5] (insect cells) was “Not Active” in each case.
Consider `CC(=N)S` [THIOACETAMIDE], for which the concentration for half-maximal inhibition (IC50) entry in experiment [1] (cho), in experiment [2] (cho-k1), in experiment [3] (platelet), in experiment [4] (hek293) and in experiment [5] (insect cells) was “Not Active” each time.
Take `Cc1ccc(C(=O)c2ccc(CC(=O)O)n2C)cc1` [TOLMETIN]: the IC50 entry in experiment [1] (cho), in experiment [2] (cho-k1), in experiment [3] (platelet), in experiment [4] (hek293) and in experiment [5] (insect cells) was “Not Active” throughout.
Regarding `CC(=O)OCC(COC(C)=O)OC(C)=O` [TRIACETIN], the 50% inhibitory concentration (IC50) result in experiment [1] (cho), in experiment [2] (cho-k1), in experiment [3] (platelet), in experiment [4] (hek293) and in experiment [5] (insect cells) was “Not Active” each time.
In the case of `CN1CCN(CCCN2c3ccccc3Sc3ccc(C(F)(F)F)cc32)CC1` [TRIFLUOPERAZINE], the half-maximal inhibitory concentration (IC50) entry in experiment [1] (cho), in experiment [2] (cho-k1), in experiment [3] (platelet), in experiment [4] (hek293) and in experiment [5] (insect cells) was “Not Active” in each case.
As for TRANSPLATIN, the IC50 entry in experiment [1] (cho) was “Not Active”; in experiment [2] (cho-k1) it was “Not Active”; in experiment [3] (platelet), “Not Active”; in experiment [4] (hek293) it was “Not Active”; in experiment [5] (insect cells, read-out: IC50) it was 0.565 µM. The inhibitory constant (Ki) entry in experiment [1] (cho), in experiment [2] (cho-k1), in experiment [3] (platelet) and in experiment [4] (hek293) was “Not Active” in each case.
Regarding ZIRCONIUM(IV) CHLORIDE, the half-inhibitory concentration (IC50) result in experiment [1] (cho), in experiment [2] (cho-k1), in experiment [3] (platelet), in experiment [4] (hek293) and in experiment [5] (insect cells) was “Not Active” throughout. The Ki entry in experiment [1] (cho), in experiment [2] (cho-k1), in experiment [3] (platelet), in experiment [4] (hek293) and in experiment [5] (insect cells) was “Not Active” throughout.
